From publication PMC12333011, “Selective Modulation of Trk Receptors by Cyclo-Organopeptides” (ACS Chemical Neuroscience, 2025)
Square brackets hold non-standard residues; d marks the D form.

Experiments:
HeLa-TrkA cells = conditions: for activity class in cell survival assay, TrkA: HeLa-TrkA cells, 50 μM compound, with or without 0.2 nM NGF, 48-72 h
Protocol: (§1) Throughout, compounds were tested at 50 μM in TrkA- and C-expressing cells and 0.4 μM in TrkB-expressing cells. […] Samples were tested for promoting cell survival in the absence of NTs (agonism) or in the presence of suboptimal concentrations of NTs whose loops they were designed to mimic (NT potentiation).
(§2) Cells were seeded at a density of 2000 cells per well. Cells were incubated in complete media for 24
(§3) hours. The media was aspirated, the cells washed twice with Dulbecco’s Phosphate Buffered Saline,
(§4) and the media was replaced with serum-free media to induce apoptosis unless otherwise halted.
(§5) Compound was added to cells (50 μM compound to HeLa-TrkA and NIH3T3-TrkC cells, 0.4 μM for
(§6) HEK293-TrkB) alone (agonism) or in the presence of suboptimal neurotrophin (~25 to 30% survival,
(§7) 0.2 nM NGF, 0.6 nM BDNF, or 0.2 nM NT3 for TrkA, B, or C expressing cells respectively). Cell
(§8) survival was measured via alamarBlue assay after 48-72 hours to determine cell viability. Data was
(§9) normalized to DMSO treatment (0%) and optimal neurotrophin (100%, 2.0 nM NGF, 1.0 nM BDNF,
(§10) 2.0 nM NT-3 for TrkA, B, or C expressing cells, respectively).
HeLa-TrkA cells were treated with 50 μM compound with or without suboptimal (0.2 nM) levels of
NGF and cell survival was analyzed after 48-72 hours by the alamarBlue assay. Data was
normalized to DMSO (0%) and 2.0 nM NGF (100%). Data is represented as the average of 3-6
(§11) points +/- standard deviation from the mean.
(§12) with a serial dilution of the compound in serum free media with or without suboptimal neurotrophin
(§13) and incubated for 48-72 hours, after which an alamarBlue assay was done to determine cell viability.
(§14) Cell viability was normalized to DMSO (0%) and optimal neurotrophin (100%), depending on cell type.
(§15) EC50 was calculated in GraphPad Prism 10.2 using the dose response “[agonist] vs response –
(§16) Variable slope (four parameters)” function. Data is presented as the mean +/- standard deviation of
an experiment with 3-6 replicates.

[1] = tested on: dry eye disease (desiccating stress to the eye); conditions: summarised from published work, ref number not given, cited from earlier work
Text: All of the data for these in vivo assays is now published , and will only be summarized here. […] This negative result is surprising because D3 is a potentiator of NGF in TrkA transfectants.

HEK293-TrkB cells = conditions: for activity class in cell survival assay, TrkB: HEK293-TrkB cells, 0.4 μM compound, with or without 0.6 nM BDNF, 48-72 h; for shape of dose-response curve, cell survival: HEK293-TrkB cells with 0.6 nM BDNF (suboptimal), EC50s could not be determined
Protocol: as §1
Cell Survival Compound Screen
as §2, §3, §4, §5, §6, §7, §8, §9, §10
Cell Survival of HEK293-TrkB Cells
HEK293-TrkB cells were treated with 0.4 μM compound with or without suboptimal (0.6 nM) levels of
BDNF and cell survival was analyzed after 48-72 hours by the alamarBlue assay. Data was
normalized to DMSO (0%) and 1.0 nM BDNF (100%). Data is represented as the average of 3-6
as §11
Cell Survival Dose Response
The most promising compounds from the screen were selected for each cell line. Cells were treated
as §12, §13, §14, §15, §16
an experiment with 3-6 replicates.

NIH3T3-TrkC cells = conditions: for activity class in cell survival assay, TrkC: NIH3T3-TrkC cells, 50 μM compound, with or without 0.2 nM NT-3, 48-72 h
Protocol: as §1
Cell Survival Compound Screen
as §2, §3, §4, §5, §6, §7, §8, §9, §10
Cell Survival of NIH3T3-TrkC Cells
NIH3T3-TrkC cells were treated with 50 μM compound with or without suboptimal (0.2 nM) levels of
NT-3 and cell survival was analyzed after 48-72 hours by the alamarBlue assay. Data was
normalized to DMSO (0%) and 2.0 nM NT-3 (100%). Data is represented as the average of 3-6
as §11
Cell Survival Dose Response
as §12, §13, §14, §15, §16
an experiment with 3-6 replicates.

Molecule | EC50 (HeLa-TrkA cells) [µM] | activity class in cell survival assay, TrkA (HeLa-TrkA cells) | activity class in cell survival assay, TrkB (HEK293-TrkB cells) | activity class in cell survival assay, TrkC (NIH3T3-TrkC cells) | corneal barrier function ([1]; murine dry eye disease model) | shape of dose-response curve, cell survival (HEK293-TrkB cells) | further results
CC[C@H](C)[C@@H]1NC(=O)[C@H](CC(N)=O)NC(=O)[C@H](C(C)C)n2cc(nn2)C[C@@H](C(=O)N[C@@H](CCCCNS(=O)(=O)c2cccc3c(N(C)C)cccc23)C(=O)O)NC(=O)[C@H](Cc2ccccc2)NC(=O)[C@H](C(C)C)NC(=O)[C@H](CO)NC(=O)[C@H](CC(N)=O)NC(=O)[C@H](CC(N)=O)NC1=O [1a(ii)ext] | 7.1 | selective TrkA agonists | – | – | – | – | –
CC[C@H](C)[C@@H]1NC(=O)[C@@H]2C[C@@H](CN2)NC(=O)[C@H](CO)NC(=O)[C@H](CC(N)=O)NC(=O)[C@H](CC(N)=O)NC1=O [3a(ii)] | 10.2 | selective TrkA agonists | – | – | – | – | activity in the preliminary in vivo screen ([1]; murine dry eye disease model): no significant activity
CC[C@H](C)[C@@H]1NC(=O)[C@H](CC(=O)O)NC(=O)[C@@H]2C[C@@H](CN2)NC(=O)CNC(=O)[C@H](CCCNC(=N)N)NC1=O [3c(i)] | – | agonist of TrkA | potentiator of BDNF and NT-3 | potentiator of BDNF and NT-3 | increased corneal barrier function | – | EC50 (HEK293-TrkB cells): 1 µM; maximum activity, % of the maximum survival imparted by BDNF (HEK293-TrkB cells; 24 h): ~53%; maximum activity, % survival compared with that imparted by NT-3 (NIH3T3-TrkC cells; 24 h): ~52%
M DSKKR (sidechain bridge or staple) [1b(iii)] | – | – | BDNF potentiators | – | – | bell-shaped dose–response curve | –
cyclo(DSKK) [3b(iii)] | – | – | BDNF potentiators | – | – | bell-shaped dose–response curve | –
cyclo([dN]-Lys-Val) [4c(iii)nKV] | – | – | – | selectively modulate cell survival through the TrkC receptors | increased corneal barrier function | – | EC50 (NIH3T3-TrkC cells; read-out: EC50, cell survival of TrkC cells with suboptimal NT-3 (unit inferred), NIH3T3-TrkC cells with 0.2 nM NT-3, sigmoidal dose response, 48-72 h, alamarBlue): 8.7 µM; NFκB activation (marker of inflammation) ([1]; biochemical experiments in the dry eye studies): decreases NFκB activation; conjunctival goblet cell densities ([1]; murine dry eye disease model, further studies): increase conjunctival goblet cell densities
